According to US20220411525A1, “BCMA AS A TARGET FOR T CELL REDIRECTING ANTIBODIES IN B CELL LYMPHOMAS” (Janssen Pharmaceutica NV, priority 2021, published 2022):

Legend:
[1] = test system: B cell malignancy cell lines; experiment: BCMA mRNA relative to GAPDH by qPCR in cell lines; format: cell-based; conditions: 100 nM, 24 h, prior and after γ-secretase inhibition
Protocol: To evaluate whether other malignancies besides multiple myeloma (MM) can potentially be targeted by BCMA directed immunotherapy, B cell malignancy cell lines were assessed for BCMA expression by flow cytometry. […] Per FIG. 1A, B cell malignancy cell lines were cultured and basal levels of BCMA were assessed by flow cytometry and compared to isotype controls. (n=3-8). Dotted line indicates no increase compared to isotype control. In accordance with FIG. 1B, cell lines were treated for 24-48h with 100nM γ-secretase inhibitor or with medium control and BCMA was assessed by flow cytometry. Values are represented as fold increase compared to 0 nM γ-secretase inhibitor. (n=3-12) Dotted line indicates no increase compared to 0 nM γ-secretase inhibitor. […] The P value was calculated by paired t test of Wilcoxon test (FIG. 1A-1B) or simple linear regression (FIG. 1E). […]
(§1) Since BCMA is known to be cleaved off by γ-secretase, it was evaluated whether inhibition of this enzyme would lead to enhanced BCMA levels on these B cell lines. […]
BCMA characterization by flow cytometry and quantitative polymerase chain reaction. […] After 24 or 48 h BCMA was detected by flow cytometry as described above. Relative expression was calculated compared to isotype controls. […]

[2] = test system: B cell malignancy cell lines; experiment: Soluble BCMA ELISA in supernatants of cell lines; format: cell-based; conditions: 100 nM, 24 or 48h, both time points
Protocol: To evaluate whether other malignancies besides multiple myeloma (MM) can potentially be targeted by BCMA directed immunotherapy, B cell malignancy cell lines were assessed for BCMA expression by flow cytometry. […] Per FIG. 1A, B cell malignancy cell lines were cultured and basal levels of BCMA were assessed by flow cytometry and compared to isotype controls. (n=3-8). Dotted line indicates no increase compared to isotype control. In accordance with FIG. 1B, cell lines were treated for 24-48h with 100nM γ-secretase inhibitor or with medium control and BCMA was assessed by flow cytometry. Values are represented as fold increase compared to 0 nM γ-secretase inhibitor. (n=3-12) Dotted line indicates no increase compared to 0 nM γ-secretase inhibitor. FIG. 1C represents the results of an asssessment of soluble BCMA by ELISA in supernatants of B cell malignancy cell lines after treatment with 0 nM or 100 nM γ-secretase inhibitor for 24-48 h. (n=2). […] The P value was calculated by paired t test of Wilcoxon test (FIG. 1A-1B) or simple linear regression (FIG. 1E). […]
as §1
sBCMA ELISA. […] After 24 or 48 h supernatants were harvested and stored at −20° C. soluble BCMA (sBCMA) in supernatants were measured by ELISA using antibody pairs for BCMA.

[3] = test system: B cell malignancy cell lines; experiment: Viability of cell lines under γ-secretase inhibition; format: cell-based; conditions: 100nM γ-secretase inhibitor, 24-48 h
Protocol: Since BCMA is known to be cleaved off by γ-secretase, it was evaluated whether inhibition of this enzyme would lead to enhanced BCMA levels on these B cell lines. To assess this, the different B cell malignancy lines were incubated for 24-48 h with 100nM γ-secretase inhibitor (Ly411575) and BCMA fold increase was compared to unstimulated cells. Viability of the different cell lines was not affected by γ-secretase inhibition (FIG. 7A). […] Besides the cell lines which already had high basal levels of BCMA (U266, RPMI-8226, MWCL1 and BCWM.1) also cell lines which had low basal expression of BCMA, such as JeKo-1 and OCI-Ly7 were able to upregulate BCMA after γ-secretase inhibition (FIG. 1B). […] This was studied by determination of soluble BCMA (sBCMA) levels in supernatants of B cell malignancy cell lines, which were cultured for 24 or 48h in the absence or presence of γ-secretase inhibitor. Indeed, sBCMA levels were detectable upon culture of different selected cell lines (except for Jurkat), and increased upon longer culture times (FIG. 1C).

primary CLL cells = experiment: Viability of CLL cells under γ-secretase inhibition; format: cell-based, human; conditions: 100 nM γ-secretase inhibitor
Protocol: Viability of CLL cells was not affected by the inhibitor (FIG. 8A). No difference in BCMA levels, before or after γ-secretase inhibitor treatment, was observed between CLL samples with mutated and unmutated immunoglobulin heavy chain variable region gene (IgHV) status (FIG. 2C-D). Low but measurable mRNA levels of BCMA expression could be detected on CLL cells (FIG. 2E). Despite low BCMA detection by flow cytometry, sBCMA could be detected in supernatants of CLL cells, already after 24 h of culturing, which increased after 48 h (FIG. 2F).

Question: Which “BCMA mRNA levels” value [1] does the source give for `C[C@H](NC(=O)[C@@H](O)c1cc(F)cc(F)c1)C(=O)N[C@@H]1C(=O)N(C)c2ccccc2-c2ccccc21` [Ly411575] here?
Answer: Its value is “remained equal”.

Question: What about the “soluble BCMA (sBCMA) levels in supernatants” value [2] of the same compound?
Answer: Its value is “strongly reduced”.

Question: And the “Viability of the different cell lines” value [3]?
Answer: The value was “not affected”.

Question: What about the “Viability of CLL cells” value (primary CLL cells) of the same compound?
Answer: The value was “not affected”.
